{
  "source": "paper PMC12449377",
  "about": "“Psychedelic-like effects induced by 2,5-dimethoxy-4-iodoamphetamine, lysergic acid diethylamide, and psilocybin in male and female C57BL/6J mice” (Psychopharmacology, 2025)",
  "origin": "cited, not measured here",
  "target": "T1, 5-HT1A (Mus musculus, UniProt Q64264)",
  "T1 construct": "tissue BioIVT; host or cells: whole C57BL/6 mouse brain minus cerebellum, male and female",
  "T1 sequence (Q64264 1-421)": "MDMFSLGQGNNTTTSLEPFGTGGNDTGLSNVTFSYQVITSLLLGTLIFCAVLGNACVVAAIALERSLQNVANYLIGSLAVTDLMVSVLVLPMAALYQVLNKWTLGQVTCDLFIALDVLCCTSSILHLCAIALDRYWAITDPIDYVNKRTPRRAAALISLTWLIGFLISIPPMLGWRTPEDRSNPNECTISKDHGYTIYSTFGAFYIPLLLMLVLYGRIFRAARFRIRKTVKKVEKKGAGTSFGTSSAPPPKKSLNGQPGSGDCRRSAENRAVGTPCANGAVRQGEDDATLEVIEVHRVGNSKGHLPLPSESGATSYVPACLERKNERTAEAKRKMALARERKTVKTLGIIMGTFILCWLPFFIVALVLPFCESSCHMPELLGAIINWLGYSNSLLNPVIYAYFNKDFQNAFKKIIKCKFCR",
  "details": "previously determined, used to calculate Ki; read-out: Kd of radioligand at 5-HT1A; cited from earlier work",
  "data": [
    {"smiles": "CCCN(CCC)C1CCc2cccc(O)c2C1", "note": "(stereo not shown) [[^3H]8-OH-DPAT]", "values": [
      {"measurement": "Kd", "result": 1.03, "unit": "nM"}
    ]}
  ]
}
